Assay results published in paper PMC8840612, “Inhibition of α-Glucosidase, Acetylcholinesterase, and Nitric Oxide Production by Phytochemicals Isolated from Millettia speciosa—In Vitro and Molecular Docking Studies” (Plants, 2022).
Values after ≈ are worked out from the molar mass of the structure shown. Read-outs that look alike come from different tables or passages of the source.

Legend:
[1] = system: NO production in lipopolysaccharide (LPS)-stimulated RAW 264.7 cells; assay: Inhibition of NO production in LPS-stimulated RAW 264.7 cells (Griess assay); type: cell-based; details: for IC50 / inhibition at 500 µg/mL: Mus musculus; for IC50: RAW264.7, LPS-stimulated RAW 264.7 cells; for IC50 / IC50 for the inhibition of NO production: tested 0.8–500 µg/mL, mean of three replicates ± SD; for inhibition at 500 µg/mL: RAW264.7; for inhibition at 500 µg/mL / IC50 for the inhibition of NO production: LPS-stimulated RAW 264.7 cells
Protocol: It was supplemented with 10% fetal bovine serum (FBS) and incubated at 37 °C in humidified air with 5% CO2. […] Next, 100 μL of Griess reagent (50 μL of 1% (w/v) sulfanilamide in 5% (v/v) phosphoric acid and 50 μL of 0.1% (w/v) N-1-naphthylethylenediamine dihydrochloride) was added, and it was incubated at room temperature for about 10 min. The Griess Reagent System from Promega Cooperation (USA) was used to determine the presence of nitrite. The microplate reader was used to assess absorption at 540 nm. N^G-Methyl-L-arginine acetate (L-NMMA) (Sigma) was used as a positive control at doses of […]. […] The experiments were repeated at least three times independently.

[2] = target: acetylcholinesterase (AChE) (Homo sapiens, UniProt P22303); assay: biochemical
Protocol: The acetylcholinesterase activity was determined by a colorimetric assay based on Ellman’s methodology. […] They were dissolved in DMSO and then diluted with buffer (50 mM of Tris-HCl, with a pH of 8 containing 0.1 M NaCl), 0.1% bovine serum albumin (BSA), 25 µL of acetylthiocholine iodide. The plate was incubated at 25 °C for 15 min. […] Each assay was done in triplicate. The percentage of inhibition of AChE was determined by the following formula: Inhibition (%) = [(OD of control − OD of sample)/OD of control] × 100.

[3] = target: α-glucosidase from Saccharomyces cerevisiae (Saccharomyces cerevisiae, UniProt P53341); assay: In vitro α-glucosidase inhibition (p-NPG substrate); details: for IC50: IC50 for inhibition of α-glucosidase, tested 1–256 µg/mL, mean of three replicates ± SD; for inhibition at 1 µg/mL / inhibition at 4 µg/mL / inhibition at 16 µg/mL / inhibition at 64 µg/mL / inhibition at 256 µg/mL: read-out: α-Glucosidase Inhibition (%);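 as to all read-outs here: yeast α-glucosidase at 0.2 U/mL with p-nitrophenyl α-D-glucopyranoside substrate in 100 mM potassium phosphate pH 6.8, product read by absorbance at 410 nm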
NO production = details: at a high concentration of 1000 µM; cited from earlier work
α-glucosidase = details: cited from earlier work
RAW 264.7 cells = assay: Cell viability (MTT) assay for cytotoxicity; type: cell-based
Protocol: The cells were diluted to a suitable cell density. One hundred eighty microliters of the cells were added to each well of the plate and incubated at 37 °C, 5% CO2 for 72 h. After the incubation, 10 µL of MTT solution (5 mg/mL) was added. […] Cell viability was calculated based on the formula as follows:Cell viability (%) = [(OD Sample)/(OD Control)] × 100%, where OD is the optical density recorded at 540 nm.

NO formation = system: NO formation; parameters: method as in doi:10.20307/nps.2019.25.1.34; details: at 40 µg/mL; ursolic acid isolated from Phryma leptostachya var. asiatica; cited from earlier work
[4] = tested 1 to 256 µg/mL, triplicate, read-out: IC50 for acetylcholinesterase inhibition (converted)
[5] = cell viability assay, concentrations as in NO assay

Sequence of acetylcholinesterase (AChE) (P22303 32-614): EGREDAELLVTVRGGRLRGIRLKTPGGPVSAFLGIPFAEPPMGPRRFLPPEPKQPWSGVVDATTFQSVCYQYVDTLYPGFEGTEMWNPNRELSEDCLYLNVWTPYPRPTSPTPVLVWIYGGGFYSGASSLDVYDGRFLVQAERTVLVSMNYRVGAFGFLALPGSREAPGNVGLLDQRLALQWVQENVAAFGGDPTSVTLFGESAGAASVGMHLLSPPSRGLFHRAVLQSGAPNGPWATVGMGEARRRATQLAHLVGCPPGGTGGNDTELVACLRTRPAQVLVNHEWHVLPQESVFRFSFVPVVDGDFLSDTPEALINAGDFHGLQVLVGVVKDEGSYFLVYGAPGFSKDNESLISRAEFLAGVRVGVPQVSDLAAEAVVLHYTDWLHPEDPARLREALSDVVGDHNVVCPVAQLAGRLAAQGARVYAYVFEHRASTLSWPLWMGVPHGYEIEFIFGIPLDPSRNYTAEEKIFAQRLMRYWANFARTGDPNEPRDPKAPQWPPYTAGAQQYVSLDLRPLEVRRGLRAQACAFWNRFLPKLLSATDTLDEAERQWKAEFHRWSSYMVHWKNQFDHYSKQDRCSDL
Sequence of α-glucosidase from Saccharomyces cerevisiae (P53341 whole entry): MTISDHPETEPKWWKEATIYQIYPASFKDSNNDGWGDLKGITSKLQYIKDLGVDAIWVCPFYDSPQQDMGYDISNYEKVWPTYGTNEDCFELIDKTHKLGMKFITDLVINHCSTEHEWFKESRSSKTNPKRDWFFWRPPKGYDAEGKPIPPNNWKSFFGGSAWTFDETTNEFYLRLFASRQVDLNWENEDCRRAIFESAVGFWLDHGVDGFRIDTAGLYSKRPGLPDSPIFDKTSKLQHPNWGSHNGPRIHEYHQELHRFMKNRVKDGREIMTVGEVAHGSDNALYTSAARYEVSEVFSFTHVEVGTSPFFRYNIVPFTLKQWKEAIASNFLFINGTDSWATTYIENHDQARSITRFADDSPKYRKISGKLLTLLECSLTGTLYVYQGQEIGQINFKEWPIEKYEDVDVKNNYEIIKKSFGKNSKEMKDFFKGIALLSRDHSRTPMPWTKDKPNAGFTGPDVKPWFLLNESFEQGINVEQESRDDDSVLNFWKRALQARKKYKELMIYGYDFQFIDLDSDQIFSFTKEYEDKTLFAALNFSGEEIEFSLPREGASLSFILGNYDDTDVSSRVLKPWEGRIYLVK

Molecule O=c1c(-c2ccc(O)cc2)coc2cc(O[C@@H]3O[C@H](CO)[C@@H](O)[C@H](O)[C@H]3O)ccc12 [Compound 9, daidzin] has an IC50 [1] of over 500 µg/mL, an inhibition at 500 µg/mL [1] of 39.5% and an IC50 [2] of over 615 µM. The “Fold Change” value [3] was under 0.663, the IC50 [3] was over 615 µM and the inhibition at 1 µg/mL [3] was 0%. The inhibition at 4 µg/mL [3] was 0%, the inhibition at 16 µg/mL [3] was 4% and the inhibition at 64 µg/mL [3] was 10%. It also gave an inhibition at 256 µg/mL [3] of 22%.

For COc1cc(/C=C/CO)cc(OC)c1O[C@@H]1O[C@H](CO)[C@@H](O)[C@H](O)[C@H]1O [Compound 8, syringin], the IC50 [1] is listed as 303 ± 11 µg/mL (≈ 814 µM), the IC50 [2] is listed as over 687 µM and the “Blocking of NO production” value (NO production) is listed as “not blocked”. The “Fold Change” value [3] was under 0.663, the IC50 [3] was over 687 µM and the inhibition at 1 µg/mL [3] was 0%. The inhibition at 4 µg/mL [3] was 1%, the inhibition at 16 µg/mL [3] was 8% and the inhibition at 64 µg/mL [3] was 9%. For the same molecule, the inhibition at 256 µg/mL [3] was 12%.

C[C@H]1C(=O)CC[C@@H]2[C@]1(C)CC[C@H]1[C@@]2(C)CC[C@@]2(C)[C@@H]3CC(C)(C)CC[C@]3(C)CC[C@]12C [Compound 1, friedelin] showed an IC50 [1] of over 500 µg/mL, an inhibition at 500 µg/mL [1] of 37.6% and an IC50 [2] of over 600 µM. The “Fold Change” value [3] was under 0.663, the IC50 [3] was over 600 µM and the inhibition at 1 µg/mL [3] was 1%. It also gave an inhibition at 4 µg/mL [3] of 1%, an inhibition at 16 µg/mL [3] of 13% and an inhibition at 64 µg/mL [3] of 20%. It also gave an inhibition at 256 µg/mL [3] of 23%.

With C[C@H]1[C@H](C)CC[C@]2(CO)CC[C@]3(C)C(=CC[C@@H]4[C@@]5(C)CC[C@H](O)C(C)(C)[C@@H]5CC[C@]43C)[C@H]12 [Compound 4, uvaol] the “IC50 for the inhibition of NO production” value [1] was 246.5 ± 18.7 µg/mL, the IC50 [1] was 246 µg/mL (≈ 557 µM) and the IC50 [2] was over 578 µM. The “IC50 α-glucosidase” value (α-glucosidase; compounds isolated from Clinopodium taxifolium) was 521.0 µg/mL (≈ 1180 µM).

In the case of C[C@@H]1O[C@@H](OC[C@H]2O[C@@H](Oc3c(-c4ccc(O)c(O)c4)oc4cc(O)cc(O)c4c3=O)[C@H](O)[C@@H](O)[C@@H]2O)[C@H](O)[C@H](O)[C@H]1O [Compound 10, rutin], the IC50 [1] is reported as 450 ± 5.2 µg/mL (≈ 736 µM), the IC50 [2] is reported as 419 µM and the IC50 [3] is reported as 3.6 µM. The inhibition at 1 µg/mL [3] was 34.5%, the inhibition at 4 µg/mL [3] was 74% and the inhibition at 16 µg/mL [3] was 78%. The inhibition at 64 µg/mL [3] was 82.5% and the inhibition at 256 µg/mL [3] was 85%.

With COc1ccc2c(c1)OC[C@H]1c3cc4c(cc3O[C@@H]21)OCO4 [Compound 7, pterocarpin] the IC50 [1] was 229 ± 18.6 µg/mL (≈ 767 µM), the IC50 [2, 4] was over 858 µM and the “Fold Change” value [3] was under 0.663. It also gave an IC50 [3] of over 858 µM, an inhibition at 1 µg/mL [3] of 0% and an inhibition at 4 µg/mL [3] of 3%. It also gave an inhibition at 16 µg/mL [3] of 3%, an inhibition at 64 µg/mL [3] of 12% and an inhibition at 256 µg/mL [3] of 25%.

For C[C@@H]1CC[C@]2(C(=O)O[C@@H]3O[C@H](CO)[C@@H](O)[C@H](O)[C@H]3O)CC[C@]3(C)C(=CC[C@@H]4[C@@]5(C)CC[C@H](O)[C@@](C)(CO)[C@@H]5CC[C@]43C)[C@@H]2[C@]1(C)O [Compound 3, pedunculoside], the “Cytotoxicity against RAW 264.7 cells” value (RAW 264.7 cells) was “without cytotoxicity”, the IC50 [1] was 273 ± 8.2 µg/mL (≈ 420 µM) and the IC50 [2] was over 393 µM. For the same molecule, the “Fold Change” value [3] was 0.918, the IC50 [3] was 284 µM and the inhibition at 1 µg/mL [3] was 1%. For the same molecule, the inhibition at 4 µg/mL [3] was 3%, the inhibition at 16 µg/mL [3] was 9.5% and the inhibition at 64 µg/mL [3] was 32%. It also gave an inhibition at 256 µg/mL [3] of 60.5%.

With C[C@@H]1CC[C@]2(C(=O)O)CC[C@]3(C)C(=CC[C@@H]4[C@@]5(C)CC[C@H](O)[C@@](C)(CO)[C@@H]5CC[C@]43C)[C@@H]2[C@]1(C)O [Compound 2, rotundic acid] the “IC50 for the inhibition of NO production” value [1] was 241.3 ± 8.2 µg/mL, the IC50 [1] was 241 µg/mL (≈ 494 µM) and the IC50 [2, 4] was over 524 µM. The “Fold Change” value [3] was under 0.663, the IC50 [3] was over 524 µM and the inhibition at 1 µg/mL [3] was 1%. For the same molecule, the inhibition at 4 µg/mL [3] was 1%, the inhibition at 16 µg/mL [3] was 1% and the inhibition at 64 µg/mL [3] was 4%. The inhibition at 256 µg/mL [3] was 33%.

[H]/N=C(/NC)NCCC[C@H](N)C(=O)O [L-NMMA, N^G-Methyl-L-arginine acetate, reference compound] showed an IC50 [1] of 8.6 µg/mL.

In the case of C[C@H]1[C@H](C)CC[C@]2(C(=O)O)CC[C@]3(C)C(=CC[C@@H]4[C@@]5(C)CC[C@H](O)C(C)(C)[C@@H]5CC[C@]43C)[C@H]12 [Compound 5, ursolic acid], the “Reduction of cell growth” value (RAW 264.7 cells; at 100 µg/mL, RAW 264.7 cells, MTT) is reported as 23.3%, the “Cytotoxicity against RAW 264.7 cells” value (RAW 264.7 cells; [5]) is reported as “moderate cytotoxicity” and the IC50 [1] is reported as 43.9 ± 3.7 µg/mL (≈ 96.1 µM). For the same molecule, the inhibition at 500 µg/mL [1] was 84%, the IC50 [2, 4] was 17.5 µM and the “Effect on NO formation” value (NO formation) was 80.6%. The “Manner of α-glucosidase inhibition” value (α-glucosidase) was “non-competitive”, the IC50 [3] was 2.41 µM and the inhibition at 1 µg/mL [3] was 48.5%. For the same molecule, the inhibition at 4 µg/mL [3] was 91.5%, the inhibition at 16 µg/mL [3] was 95% and the inhibition at 64 µg/mL [3] was 98%. For the same molecule, the inhibition at 256 µg/mL [3] was 99%.

For CC(C)=CCC[C@](C)(O[C@@H]1O[C@H](CO[C@@H]2O[C@H](CO)[C@@H](O)[C@H](O)[C@H]2O)[C@@H](O)[C@H](O)[C@H]1O)[C@H]1CC[C@]2(C)[C@@H]1[C@H](O)C[C@@H]1[C@@]3(C)CC[C@H](O[C@@H]4O[C@H](CO)[C@@H](O)[C@H](O)[C@H]4O)C(C)(C)[C@@H]3CC[C@]12C [Compound 6, gypenoside XVII], the “Cytotoxicity against RAW 264.7 cells” value (RAW 264.7 cells; [5]) was “no cytotoxicity”, the IC50 [1] was 93.9 ± 5.4 µg/mL (≈ 99.1 µM) and the IC50 [2] was over 270 µM. For the same molecule, the “Fold Change” value [3] was under 0.663, the IC50 [3] was over 270 µM and the inhibition at 1 µg/mL [3] was 1%. The inhibition at 4 µg/mL [3] was 5%, the inhibition at 16 µg/mL [3] was 17% and the inhibition at 64 µg/mL [3] was 21%. The inhibition at 256 µg/mL [3] was 34%.

With C[C@H]1O[C@H](O[C@H]2[C@H](O)[C@@H](O)[C@@H](O[C@H]3[C@H](O)[C@@H](O)C(O)O[C@@H]3CO)O[C@@H]2CO)[C@H](O)[C@@H](O)[C@@H]1N[C@H]1C=C(CO)[C@@H](O)[C@H](O)[C@H]1O (stereo partly shown) [acarbose, reference compound] the inhibition at 1 µg/mL [3] was 0%, the inhibition at 4 µg/mL [3] was 5% and the inhibition at 16 µg/mL [3] was 18%. The inhibition at 64 µg/mL [3] was 23% and the inhibition at 256 µg/mL [3] was 72%.
